Key:
[1] = target: T1, P-selectin (P-selectin/IgG) (Homo sapiens, UniProt P16109); test: Cell-free P-selectin ligand competitive binding assay (sLe^a-PAA); conditions: P-selectin/IgG coated plate, sLe^a-PAA streptavidin-POD complex, 25° C., 2 hours; read-out: IC50, Binding Affinity to P-Selectin Determined by Competitive Binding Assay
T1 sequence (P16109 42-771): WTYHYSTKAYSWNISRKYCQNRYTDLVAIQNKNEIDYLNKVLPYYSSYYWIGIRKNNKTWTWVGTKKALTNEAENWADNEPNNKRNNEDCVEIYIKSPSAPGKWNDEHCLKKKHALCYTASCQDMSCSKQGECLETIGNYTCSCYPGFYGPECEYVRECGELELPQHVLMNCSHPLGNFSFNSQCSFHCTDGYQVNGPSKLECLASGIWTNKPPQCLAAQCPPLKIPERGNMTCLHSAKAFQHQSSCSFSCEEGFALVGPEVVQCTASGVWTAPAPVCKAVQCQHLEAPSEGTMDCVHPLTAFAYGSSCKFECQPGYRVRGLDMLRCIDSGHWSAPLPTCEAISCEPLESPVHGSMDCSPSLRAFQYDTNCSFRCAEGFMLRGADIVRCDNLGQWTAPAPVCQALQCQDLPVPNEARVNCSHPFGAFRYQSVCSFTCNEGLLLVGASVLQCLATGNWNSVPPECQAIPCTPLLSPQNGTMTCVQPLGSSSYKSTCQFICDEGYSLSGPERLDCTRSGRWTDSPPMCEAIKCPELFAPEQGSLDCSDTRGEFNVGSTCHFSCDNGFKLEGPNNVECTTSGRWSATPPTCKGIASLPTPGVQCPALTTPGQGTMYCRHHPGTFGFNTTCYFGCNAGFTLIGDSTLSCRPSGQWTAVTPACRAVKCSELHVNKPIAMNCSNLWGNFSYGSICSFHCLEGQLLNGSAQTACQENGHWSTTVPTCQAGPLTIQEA
Method: The cell-free P-selectin ligand binding assay was adapted from Weitz-Schmidt et al (G. Weitz-Schmidt, D. Stokmaier, G. Scheel, N. E. Nifant'ev, A. B. Tuzikov, N. V. Bovin, Anal Biochem 1996, 238, 184-190). A MaxiSorp 96-well flat bottom microtiter plate purchased from Nalge Nunc International (Penfield, N.Y., USA) was coated with P-selectin/IgG by incubation with 100 μL/well of the purified protein at a concentration of 3 μg/ml in 10 mM HEPES-NaOH pH 7.4, 150 mM NaCl, 1 mM CaCl2 (HAB-Ca^+). After an overnight incubation at 4° C., the plate was washed three times with HAB-Ca^+ followed by a 2 hour incubation with 200 μL/well of a solution of 3% BSA in HAB-Ca^+ at room temperature to block nonspecific binding. During this incubation, inhibitory test compounds, diluted in HAB-Ca^+, were titrated by a twofold serial and mixed with an equal volume of 0.2 μg/ml of a preformed complex of a biotinylated sialyl Lewis' polyacrylamide polymer (sLe^a-PAA) purchased form GlycoTech Inc. (Gaithsburg, Md., USA) and horseradish peroxidase-labeled streptavidin (streptavidin-POD) purchased from Roche (Rotkreuz, Switzerland). After blocking, the microtiter plate was washed three times with HAB-Ca^+ and 100 μL/well of the inhibitor dilution series premixed with sLe^a-PAA streptavidin-POD complex was transferred to the different wells of the plate. The binding reaction was allowed to proceed at 25° C. After 2 hours, the plate was washed twice with HAB-Ca^+, and 100 μL/well of ABTS (2,2′-azino-bis[3-ethylbenzthiazoline-6-sulfonic acid]) substrate reagent purchased from Invitrogen (Paisley, UK) was added to each well. Adding 100 μL/well of 2% oxalic acid stopped the colorimetric reaction was after 5 minutes. The optical density was determined at […] (SpectraMax). The concentration of antagonist required to inhibit binding by 50% was determined and is reported as the IC50 value.

[2] = target: T2, E-selectin (E-selectinLEC2 construct) (Homo sapiens, UniProt P16581); test: Microscale Thermophoresis (MST) affinity assay for E-selectin; conditions: labeled E-selectinLEC2, HEPES buffer pH 7.4, 1 mM CaCl2, 25° C.; read-out: Binding Affinity (KD) to E-Selectin Determined by MST
T2 construct: a construct consisting of the lectin domain, the EGF like domain, and the first two short consensus repeats (E-selectinLEC2)
T2 sequence (P16581 22-301 limits assumed): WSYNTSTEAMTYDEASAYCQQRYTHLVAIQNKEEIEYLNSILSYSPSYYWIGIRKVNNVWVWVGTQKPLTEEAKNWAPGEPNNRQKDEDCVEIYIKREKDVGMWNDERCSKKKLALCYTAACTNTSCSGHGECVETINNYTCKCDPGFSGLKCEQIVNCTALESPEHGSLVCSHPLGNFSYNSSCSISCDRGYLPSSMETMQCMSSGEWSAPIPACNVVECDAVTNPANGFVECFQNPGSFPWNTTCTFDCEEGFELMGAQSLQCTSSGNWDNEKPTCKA
Method: For E-selectin, a construct consisting of the lectin domain, the EGF like domain, and the first two short consensus repeats (E-selectinLEC2) was labeled using the amine reactive protein labeling kit BLUE-NHS from NanoTemper Technologies GmbH (Munich, Germany).
The Microscale Thermophoresis (MST) experiments were carried out in a HEPES buffer adjusted to pH 7.4 containing 150 mM NaCl, 1 mM CaCl2 and 0.05% Tween 20 at a temperature of 25° C. with 50% LED power, 50% laser power, laser on time of 30 seconds, and laser off time of 5 seconds with standard treated capillaries. A fixed concentration of the labeled E-selectinLEC2 protein was incubated for 20 minutes with a 15-datapoint […] 1:1 dilution of ligand starting about 30 times above the expected KD. The observed data points were fitted using the single-site binding function of Alan Cooper, Tutorial Chemistry Texts, Vol 16: Biophysical Chemistry; Royal Society of Chemistry: Cambridge, 2004.

Row | Structure (SMILES) | IC50 [1] [µM] | Kd [2] [µM]
1 | CCC1CC(C(=O)NCCCc2cn(CCCCC(=O)Nc3cc(S(=O)(=O)O)cc4cc(S(=O)(=O)O)cc(S(=O)(=O)O)c34)nn2)CC(OC2OC(CO)C(O)C(OC(CC3CCCCC3)C(=O)O)C2OC(=O)c2ccccc2)C1OC1OC(C)C(O)C(O)C1O (centres unmarked) [Compound 15c] | 210 | 1.2
2 | CC1CC(C(=O)NCCCc2cn(CCC(=O)Nc3cc(S(=O)(=O)O)cc4cc(S(=O)(=O)O)cc(S(=O)(=O)O)c34)nn2)CC(OC2OC(CO)C(O)C(OC(CC3CCCCC3)C(=O)O)C2OC(=O)c2ccccc2)C1OC1OC(C)C(O)C(O)C1O (centres unmarked) [Compound 17] | 185 | 3
3 | CCC1CC(C(=O)NCCCc2cn(CCC(=O)Nc3cc(S(=O)(=O)O)cc4cc(S(=O)(=O)O)cc(S(=O)(=O)O)c34)nn2)CC(OC2OC(CO)C(O)C(OC(CC3CCCCC3)C(=O)O)C2OC(=O)c2ccccc2)C1OC1OC(C)C(O)C(O)C1O (centres unmarked) [Compound 15a] | 94 | 1.5
4 | CCC1CC(C(=O)NCCCc2cn(CCCC(=O)Nc3cc(S(=O)(=O)O)cc4cc(S(=O)(=O)O)cc(S(=O)(=O)O)c34)nn2)CC(OC2OC(CO)C(O)C(OC(CC3CCCCC3)C(=O)O)C2OC(=O)c2ccccc2)C1OC1OC(C)C(O)C(O)C1O (centres unmarked) [Compound 15b] | 82 | 0.97

From patent publication US20200171005A9, “Heterobifunctional Pan-Selectin Antagonists Having a Triazole Linker” (GlycoMimetics, Inc., priority 2015, published 2020)
